From the supplement of paper PMC10307832

How the values were obtained:
Experiment in all cases: relative viability (nuclei count vs DMSO), 5 days (fraction); higher = more cells survive
17-AAG + OSI-027 = compound: C=CCNC1=C2C[C@@H](C)C[C@H](OC)[C@H](O)[C@@H](C)/C=C(\C)[C@H](OC(N)=O)[C@@H](OC)/C=C\C=C(/C)C(=O)NC(=CC1=O)C2=O [17-AAG] + COc1cccc2cc(-c3nc([C@H]4CC[C@H](C(=O)O)CC4)n4ncnc(N)c34)[nH]c12 [OSI-027] (partner 0.5 µM)
How it was run: (§1)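 A single step with final 0.05% Triton X-100, 1% formaldehyde and 1 ug/ml Hoechst fixed the cells and stained nuclei 5 days after treatment. Lung cancer cell lines in 1536-well plates had been treated by pin tool the day after seeding with one drug alone or a fixed anchor-drug dose plus five library-drug doses (not always all listed) in √10 steps, and nuclei were counted on 4× images. Relative viability is the ratio of nuclei in treated wells to nuclei in vehicle wells, taken as the median of duplicate plates.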

17-AAG + Linsitinib = compound: C=CCNC1=C2C[C@@H](C)C[C@H](OC)[C@H](O)[C@@H](C)/C=C(\C)[C@H](OC(N)=O)[C@@H](OC)/C=C\C=C(/C)C(=O)NC(=CC1=O)C2=O [17-AAG] + C[C@]1(O)C[C@@H](c2nc(-c3ccc4ccc(-c5ccccc5)nc4c3)c3c(N)nccn32)C1 [Linsitinib] (partner 1 µM)
How it was run: as §1

17-AAG + Lapatinib = compound: C=CCNC1=C2C[C@@H](C)C[C@H](OC)[C@H](O)[C@@H](C)/C=C(\C)[C@H](OC(N)=O)[C@@H](OC)/C=C\C=C(/C)C(=O)NC(=CC1=O)C2=O [17-AAG] + CS(=O)(=O)CCNCc1ccc(-c2ccc3ncnc(Nc4ccc(OCc5cccc(F)c5)c(Cl)c4)c3c2)o1 [Lapatinib] (partner 2 µM)
How it was run: as §1

17-AAG + Luminespib = compound: C=CCNC1=C2C[C@@H](C)C[C@H](OC)[C@H](O)[C@@H](C)/C=C(\C)[C@H](OC(N)=O)[C@@H](OC)/C=C\C=C(/C)C(=O)NC(=CC1=O)C2=O [17-AAG] + CCNC(=O)c1noc(-c2cc(C(C)C)c(O)cc2O)c1-c1ccc(CN2CCOCC2)cc1 [Luminespib] (partner 0.01 µM)
How it was run: as §1

Cell Line | relative viability (17-AAG + OSI-027; first compound 0.00128 µM) | relative viability (17-AAG + OSI-027; first compound 0.004048 µM) | relative viability (17-AAG + OSI-027; first compound 0.0128 µM) | relative viability (17-AAG + OSI-027; first compound 0.04048 µM) | relative viability (17-AAG + OSI-027; first compound 0.128 µM) | relative viability (17-AAG + Linsitinib; first compound 0.00128 µM) | relative viability (17-AAG + Linsitinib; first compound 0.004048 µM) | relative viability (17-AAG + Linsitinib; first compound 0.0128 µM) | relative viability (17-AAG + Linsitinib; first compound 0.04048 µM) | relative viability (17-AAG + Linsitinib; first compound 0.128 µM) | relative viability (17-AAG + Lapatinib; first compound 0.00128 µM) | relative viability (17-AAG + Lapatinib; first compound 0.004048 µM) | relative viability (17-AAG + Lapatinib; first compound 0.0128 µM) | relative viability (17-AAG + Lapatinib; first compound 0.04048 µM) | relative viability (17-AAG + Lapatinib; first compound 0.128 µM) | relative viability (17-AAG + Luminespib; first compound 0.00128 µM) | relative viability (17-AAG + Luminespib; first compound 0.004048 µM) | relative viability (17-AAG + Luminespib; first compound 0.0128 µM) | relative viability (17-AAG + Luminespib; first compound 0.04048 µM) | relative viability (17-AAG + Luminespib; first compound 0.128 µM)
UMC-11 | 0.469 | 0.512 | 0.255 | 0.233 | 0.202 | 0.967 | 0.943 | 0.751 | 0.299 | 0.178 | 0.887 | 0.992 | 0.566 | 0.204 | 0.127 | 0.973 | 0.94 | 0.552 | 0.254 | 0.196
NCI-H1651 | 0.749 | 0.685 | 0.683 | 0.395 | 0.143 | 1.09 | 1.01 | 0.975 | 0.227 | 0.177 | 0.841 | 0.874 | 0.519 | 0.168 | 0.146 | 0.884 | 0.774 | 0.394 | 0.213 | 0.186
NCI-H1792 | 0.691 | 0.765 | 0.619 | 0.574 | 0.273 | 0.481 | 0.619 | 0.449 | 0.391 | 0.372 | 0.783 | 1.02 | 0.704 | 0.638 | 0.115 | 0.351 | 0.418 | 0.255 | 0.268 | 0.213
NCI-H2023 | 0.328 | 0.221 | 0.0577 | 0.0589 | 0.0633 | 0.595 | 0.501 | 0.103 | 0.117 | 0.0914 | 0.872 | 0.675 | 0.0806 | 0.106 | 0.0805 | 0.52 | 0.25 | 0.228 | 0.0785 | 0.0689
COR-L 105 | 0.719 | 0.829 | 0.704 | 0.351 | 0.306 | 0.834 | 0.895 | 1 | 0.644 | 0.666 | 0.352 | 0.333 | 0.344 | 0.406 | 0.306 | 0.858 | 0.708 | 0.671 | 0.432 | 0.224
NCI-H1734 | 0.602 | 0.709 | 0.415 | 0.263 | 0.144 | 0.87 | 0.838 | 0.878 | 0.308 | 0.18 | 0.952 | 0.934 | 0.764 | 0.579 | 0.141 | 0.197 | 0.18 | 0.167 | 0.143 | 0.16
NCI-H322M | 0.465 | 0.364 | 0.329 | 0.285 | 0.271 | 1.04 | 0.938 | 0.99 | 0.484 | 0.334 | 0.616 | 0.612 | 0.65 | 0.522 | 0.294 | 0.663 | 0.274 | 0.285 | 0.274 | 0.289
CAL-12T | 0.564 | 0.807 | 0.713 | 0.411 | 0.128 | 0.764 | 0.815 | 0.73 | 0.425 | 0.276 | 0.645 | 0.598 | 0.611 | 0.527 | 0.334 | 0.33 | 0.331 | 0.175 | 0.14 | 0.113
NCI-H2085 | 0.845 | 0.859 | 0.763 | 0.521 | 0.29 | 0.9 | 0.844 | 1.02 | 0.849 | 0.533 | 0.784 | 0.802 | 0.812 | 0.875 | 0.527 | 0.521 | 0.447 | 0.462 | 0.345 | 0.314
